Measurements as given in patent US7528113B2, “Method and composition for the treatment of adenoviral ocular infections” (priority 1999, dated 2009).
Read-outs that look alike come from different tables or passages of the source.

Experiments:
[1] = tested on: Ad37 binding to Chang C conjunctival cells; experiment: microbe, parasite or virus in culture; format: cell-based, adenovirus; settings: for Interference with the binding of Ad37 to sialic acid expressing cells: 160 mmol concentrations
Text: (§1) Interference of the binding of adenovirus subtype 37 (Ad37) with the first step cellular receptor was studied using dextran sulphate and glycosaminoglycans, such as heparin and heparan sulphates. […] It was thus confirmed that the cellular receptor for Ad37 is (2-3) linked sialic acid.
The effect of glycoproteins to inhibit Ad37 binding to Chang C conjunctival cells was investigated using the following glycoproteins: fetuin, mucin, orosomucoid and glycophorin A. The results are presented in table 2.
The inventors confirmed the inventive concept by determining the inhibition achieved with different carbohydrates, using adenovirus type 37 and Chang C conjunctival cells.
All data are visualised as the dose required for 50% inhibition of adenovirus binding and the maximum inhibition of adenovirus binding.

[2] = tested on: Ad37 virus; experiment: Binding of 125I-labeled Ad37 to glycosphingolipids; design: species or system adenovirus; settings: preliminary results, thin layer chromatography, FIG. 3
[3] = tested on: adenoviral adhesion; experiment: Inhibition of adenoviral adhesion by multivalent ligands; format: cell-based, adenovirus; settings: multivalent ligand
Text: Monovalent analogues of the sialic acid receptor will have to cover most of the twelve fibres at each of the twelve comers of the virus particle to enable efficient blocking of the binding of the virus particle to the host cell receptors. Divalent or multivalent analogues will, by interacting with a few fibres, enable aggregation of numerous virus particles into a lattice. This will hamper or inhibit virus infection with a higher efficiency, i.e. more inhibition per μmole of ligand.

[4] = tested on: adenovirus subtype 37 (Ad37); experiment: Interference of the binding of Ad37 with the first step cellular receptor; format: cell-based
Text: as §1

[5] = tested on: adenovirus type 8 binding to Chang C conjunctival cells; experiment: Inhibition of adenovirus type 8 binding to Chang C conjunctival cells; format: cell-based
[6] = tested on: adenovirus type 19a binding to Chang C conjunctival cells; experiment: Inhibition of adenovirus type 19a binding to Chang C conjunctival cells; format: cell-based
[7] = tested on: Ad37 binding to human epithelial A549 cells; experiment: Ad37 binding to A549 cells; format: cell-based, adenovirus; settings: pre-treatment / pre-incubation of the cells; FIG. 2
Text: Binding to human epithelial A549 cells was investigated. […] This means that Ad8, Ad19a and Ad37, but not types 9 and 19p infect A549 cells by binding to cell surface sialic acid.

[8] = tested on: Ad37 binding to Chinese hamster ovary cells; experiment: Ad37 binding to Chinese hamster ovary cells that do not express CAR; format: cell-based, adenovirus; settings: Chinese hamster ovary cells not expressing CAR; see FIG. 2
Text: as §1

[9] = Chang cells, sialic acid carbohydrates, read-out: Concentration of carbohydrate causing 50% inhibition of Ad37 binding
[10] = read-out: Concentration of carbohydrate causing 50% inhibition of Ad37 binding
[11] = Chang cells, sialylated glycoproteins, read-out: Concentration of glycoprotein causing 50% inhibition of Ad37 binding

In the case of CC(=O)N[C@H]1[C@H]([C@H](O)[C@H](O)CO)O[C@@](O[C@H]2[C@@H](O)[C@@H](CO)O[C@@H](O[C@H]3[C@H](O[C@@H]4O[C@@H](C)[C@@H](O)[C@@H](O)[C@@H]4O)[C@@H](O)C(O)O[C@@H]3CO)[C@@H]2O)(C(=O)O)C[C@@H]1O (stereo partly drawn) [N-Acetyl Neuraminyl-3-Fucosyl Lactose, α-Neu-5-Ac-(2-3)-β-D-Gal(1-4)-(α-Fuc-(1-3))-Glc], the “Inhibiting binding of Ad37 to sialic acid-expressing cells (in words)” value (“Inhibiting binding of Ad37” below) [1] is reported as “effective in inhibiting binding” and the IC50 [1, 9] is reported as 5000 µM.

CC(=O)N[C@H]1[C@H]([C@H](O)[C@H](O)CO)OC(O)(C(=O)O)C[C@@H]1O (stereo partly drawn) [N-acetyl-neuraminic acid] was tested, and the “Inhibiting binding of Ad37” value [1] was “effective in inhibiting binding”, the “Maximal inhibition of Ad37 binding in %” value ([1]; 160 mM carbohydrate) was 82% and the IC50 [1, 10] was 18000 µM.

With O=C(CO)N[C@H]1[C@H]([C@H](O)[C@H](O)CO)OC(O)(C(=O)O)C[C@@H]1O (stereo partly drawn) [N-glycolyl-neuraminic acid] the “Inhibiting binding of Ad37” value [1] was “effective in inhibiting binding”, the “Maximal inhibition of Ad37 binding in %” value ([1]; 160 mM carbohydrate) was 91% and the IC50 [1, 10] was 40000 µM.

In the case of CC(=O)N[C@@H]1[C@@H](O)[C@@H](O)[C@@H](CO)O[C@@H]1O [acetyl galactose amine, reference compound], the “Interference with the binding of Ad37 to sialic acid expressing cells” value (“Interference with the binding of Ad37” below) [1] is reported as “did not interfere with the binding”.

For CC(=O)N[C@@H]1[C@@H](O)[C@H](O)[C@@H](CO)O[C@H]1O [acetyl glucose amine, reference compound], the “Interference with the binding of Ad37” value [1] was “did not interfere with the binding”.

In the case of CC(=O)N[C@H]1[C@@H](O)[C@H](O)[C@@H](CO)O[C@@H]1O [acetyl mannose amine, reference compound], the “Interference with the binding of Ad37” value [1] is reported as “did not interfere with the binding”.

For O=C[C@H](O)[C@@H](O)[C@@H](O)[C@H](O)CO [galactose, reference compound], the “Interference with the binding of Ad37” value [1] was “did not interfere with the binding”.

In the case of OC[C@H]1O[C@@H](O[C@H]2[C@H](O)[C@@H](O)C(O)O[C@@H]2CO)[C@H](O)[C@@H](O)[C@H]1O (stereo partly drawn) [lactose, reference compound], the “Interference with the binding of Ad37” value [1] is reported as “did not interfere with the binding”.

In the case of CC(=O)N[C@H]1[C@H]([C@H](O)[C@H](O)CO)O[C@@](OC[C@H]2O[C@@H](O[C@H]3[C@H](O)[C@@H](NC(C)=O)C(O)O[C@@H]3CO)[C@H](O)[C@@H](O)[C@H]2O)(C(=O)O)C[C@@H]1O (stereo partly drawn) [α-Neu-5Ac-(2-6)-β-D-Gal-(1-4)-D-GlcNAc], the “Inhibiting binding of Ad37” value [1] is reported as “effective in inhibiting binding” and the IC50 [1, 9] is reported as 7000 µM.

With CC(=O)NC1C(O)CC(OC2C(O)C(CO)OC(OC3C(O)C(CO)OC(O)C3NC(C)=O)C2O)(C(=O)O)OC1C(O)C(O)CO [α-NeuAc-(2-3)-β-D-Gal-(1-3)-β-GalNAc] the “Ad37 virus binding to the structure” value [2] was “effective for Ad37 virus binding”.

For CC(=O)N[C@H]1[C@H]([C@H](O)[C@H](O)CO)O[C@@](O[C@H]2[C@@H](O)[C@@H](CO)O[C@@H](O[C@H]3[C@H](O)[C@@H](NC(C)=O)C(O)O[C@@H]3CO)[C@@H]2O)(C(=O)O)C[C@@H]1O (stereo partly drawn) [α-NeuNAc-(2-3)-β-D-Gal-(1-4)-D-GlcNAc], the “Inhibiting binding of Ad37” value [1] was “effective in inhibiting binding” and the IC50 [1, 9] was 5000 µM.

With Colominic acid the “Inhibiting binding of Ad37” value [1] was “effective in inhibiting binding” and the “Maximal inhibition of Ad37 binding in %” value ([1]; 160 mM carbohydrate) was 79%.

In the case of Fetuin: sialylated glycoprotein, the “Maximal inhibition of Ad37 binding in %” value ([1]; 500 μM glycoprotein) is reported as 62% and the IC50 [1, 11] is reported as 420 µM.

GalNAcβ4(NeuAcα3)Galβ4Glcβ1 [NeuAcGM2] was tested, and the “Ad37 virus binding to the structure” value [2] was “effective for Ad37 virus binding”.

“GalNAcβ4(NeuAcα8NeuAcα3)Galβ4Glcβ1 [NeuAc-GD2]” was tested, and the “Ad37 virus binding to the structure” value [2] was “effective for Ad37 virus binding”.

With “Galβ3GalNAcβ4(NeuAcα8NeuAcα3)Galβ4Glcβ1 [NeuAc-GD1b]” the “Ad37 virus binding to the structure” value [2] was “effective for Ad37 virus binding”.

For Mucin, the “Maximal inhibition of Ad37 binding in %” value ([1]; 500 μM glycoprotein) was 89%, the IC50 [1, 11] was 8 µM and the Inhibiting adenoviral adhesion [3] was “very effective”.

With N-acetyl-neuraminyllactose the “Inhibiting binding of Ad37” value [1] was “effective in inhibiting binding”, the “Maximal inhibition of Ad37 binding in %” value ([1]; 160 mM carbohydrate) was 95% and the “Inhibition of Ad37 binding (in words)” value ([1]; 160 mM concentration) was “almost total inhibition”. For the same molecule, the IC50 [1, 9] was 5000 µM.

With “NeuAcα3Galβ3GalNAcβ4(NeuAcα3)Galβ4Glcβ1 [NeuAc-GD1a]” the “Ad37 virus binding to the structure” value [2] was “effective for Ad37 virus binding”.

“Orosomucoid: sialylated, negatively charged glycoprotein” was tested, and the “Maximal inhibition of Ad37 binding in %” value ([1]; 500 μM glycoprotein) was 77% and the IC50 [1, 11] was 75 µM.

dextran sulphate was tested, and the “Impairment of Ad37 binding by negatively charged molecules” value (shortened to “Impairment of Ad37 binding”) [4] was “could impair binding of the virus”.

For heparan sulphates, the “Impairment of Ad37 binding” value [4] was “could impair binding of the virus”.

For heparin, the “Maximal inhibition of binding in %” value ([1]; adenovirus type 37, 670 μM heparin) was 87%, the IC50 ([1]; adenovirus type 37, Chang C conjunctival cells, read-out: Concentration of heparin causing 50% inhibition of binding) was 20 µM and the “Maximal inhibition of binding in %” value ([5]; adenovirus type 8, 670 μM heparin) was 92%. The IC50 ([5]; adenovirus type 8, Chang C conjunctival cells, read-out: Concentration of heparin causing 50% inhibition of binding) was 30 µM, the “Impairment of Ad37 binding” value [4] was “could impair binding of the virus” and the “Maximal inhibition of binding in %” value ([6]; 670 μM heparin) was 90%. It also gave an IC50 ([6]; Chang C conjunctival cells, read-out: Concentration of heparin causing 50% inhibition of binding) of 25 µM.

With wheat germ agglutinin the “Inhibition of Ad37 binding to A549 cells” value [7] was “is inhibited” and the “Inhibition/blocking of Ad37 binding” value [8] was “blocked the binding”.

B1: Glycophorin A: sialylated glycoprotein (protein, UniProt P02724 20-150, looked up)
Glycophorin-A: LSTTEVAMHTSTSSSVTKSYISSQTNDTHKRDTYAATPRAHEVSEISVRTVYPPEEETGERVQLAHHFSEPEITLIIFGVMAGVIGTILLISYGIRRLIKKSPSDVKPLPSPDTDVPLSSVEIENPETSDQ
For B1, the “Maximal inhibition of Ad37 binding in %” value ([1]; 500 μM glycoprotein) was 45% and the IC50 [1, 11] was over 500 µM.
